Columns and labels:
RON (human) = RON (human) (Homo sapiens, UniProt Q04912); experiment: RON (human) AlphaScreen kinase assay, Km of ATP; assay type: biochemical; conditions: AlphaScreen, Km of ATP; read-out: RON biochemical IC50
In short: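 Detection used PT66 AlphaScreen beads added in Tris pH 7.5/NaCl/EDTA/BSA buffer, read after 1 h incubation. Vehicle-only DMSO wells served as controls.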

MET (human) = MET (human) (Homo sapiens, UniProt P08581); experiment: MET (human) AlphaScreen kinase assay, Km of ATP; assay type: biochemical; conditions: AlphaScreen, Km of ATP; read-out: Met biochemical IC50
MET (human), sequence (P08581 25-1390): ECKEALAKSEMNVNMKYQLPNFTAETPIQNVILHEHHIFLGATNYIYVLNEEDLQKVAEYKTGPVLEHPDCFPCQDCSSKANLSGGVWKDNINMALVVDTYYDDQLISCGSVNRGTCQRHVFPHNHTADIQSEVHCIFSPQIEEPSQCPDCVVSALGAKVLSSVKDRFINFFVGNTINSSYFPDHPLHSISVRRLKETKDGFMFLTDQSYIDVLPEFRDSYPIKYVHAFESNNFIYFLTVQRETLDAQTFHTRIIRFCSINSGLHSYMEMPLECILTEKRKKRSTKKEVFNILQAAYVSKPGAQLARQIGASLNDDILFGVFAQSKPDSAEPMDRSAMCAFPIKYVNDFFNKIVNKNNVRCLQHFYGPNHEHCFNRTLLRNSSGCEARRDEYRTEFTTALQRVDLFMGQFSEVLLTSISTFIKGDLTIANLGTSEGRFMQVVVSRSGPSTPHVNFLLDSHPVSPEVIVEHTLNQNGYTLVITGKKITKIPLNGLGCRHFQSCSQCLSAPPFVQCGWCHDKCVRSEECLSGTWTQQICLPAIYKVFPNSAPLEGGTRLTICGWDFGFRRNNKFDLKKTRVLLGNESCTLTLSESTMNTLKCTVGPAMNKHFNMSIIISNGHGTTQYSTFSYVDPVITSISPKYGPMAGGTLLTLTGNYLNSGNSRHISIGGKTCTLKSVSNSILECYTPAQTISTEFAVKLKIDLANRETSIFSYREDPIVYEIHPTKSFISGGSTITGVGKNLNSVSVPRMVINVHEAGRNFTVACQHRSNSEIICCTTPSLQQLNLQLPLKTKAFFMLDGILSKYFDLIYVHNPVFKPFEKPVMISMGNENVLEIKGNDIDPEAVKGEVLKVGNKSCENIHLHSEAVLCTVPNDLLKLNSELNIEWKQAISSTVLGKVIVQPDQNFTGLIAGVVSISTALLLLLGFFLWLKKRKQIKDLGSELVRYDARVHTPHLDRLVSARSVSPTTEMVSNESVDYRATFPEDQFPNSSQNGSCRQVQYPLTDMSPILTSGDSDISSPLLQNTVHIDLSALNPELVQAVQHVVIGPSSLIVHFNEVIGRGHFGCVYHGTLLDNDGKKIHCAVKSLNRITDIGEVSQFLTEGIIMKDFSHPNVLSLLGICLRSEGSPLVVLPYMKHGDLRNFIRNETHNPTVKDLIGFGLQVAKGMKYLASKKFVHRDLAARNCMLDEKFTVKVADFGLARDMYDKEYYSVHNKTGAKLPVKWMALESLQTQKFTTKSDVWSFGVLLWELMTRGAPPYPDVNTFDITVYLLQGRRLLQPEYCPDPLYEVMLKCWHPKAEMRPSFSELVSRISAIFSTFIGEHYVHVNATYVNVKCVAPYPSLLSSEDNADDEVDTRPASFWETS
In short: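 Human MET at lot-optimised concentration in 50 mM Tris pH 7.4 buffer with 1 mM DTT, compound at 1% DMSO final; enzyme starts the reaction, 60 min at RT.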

RON (human), sequence (Q04912 25-1400): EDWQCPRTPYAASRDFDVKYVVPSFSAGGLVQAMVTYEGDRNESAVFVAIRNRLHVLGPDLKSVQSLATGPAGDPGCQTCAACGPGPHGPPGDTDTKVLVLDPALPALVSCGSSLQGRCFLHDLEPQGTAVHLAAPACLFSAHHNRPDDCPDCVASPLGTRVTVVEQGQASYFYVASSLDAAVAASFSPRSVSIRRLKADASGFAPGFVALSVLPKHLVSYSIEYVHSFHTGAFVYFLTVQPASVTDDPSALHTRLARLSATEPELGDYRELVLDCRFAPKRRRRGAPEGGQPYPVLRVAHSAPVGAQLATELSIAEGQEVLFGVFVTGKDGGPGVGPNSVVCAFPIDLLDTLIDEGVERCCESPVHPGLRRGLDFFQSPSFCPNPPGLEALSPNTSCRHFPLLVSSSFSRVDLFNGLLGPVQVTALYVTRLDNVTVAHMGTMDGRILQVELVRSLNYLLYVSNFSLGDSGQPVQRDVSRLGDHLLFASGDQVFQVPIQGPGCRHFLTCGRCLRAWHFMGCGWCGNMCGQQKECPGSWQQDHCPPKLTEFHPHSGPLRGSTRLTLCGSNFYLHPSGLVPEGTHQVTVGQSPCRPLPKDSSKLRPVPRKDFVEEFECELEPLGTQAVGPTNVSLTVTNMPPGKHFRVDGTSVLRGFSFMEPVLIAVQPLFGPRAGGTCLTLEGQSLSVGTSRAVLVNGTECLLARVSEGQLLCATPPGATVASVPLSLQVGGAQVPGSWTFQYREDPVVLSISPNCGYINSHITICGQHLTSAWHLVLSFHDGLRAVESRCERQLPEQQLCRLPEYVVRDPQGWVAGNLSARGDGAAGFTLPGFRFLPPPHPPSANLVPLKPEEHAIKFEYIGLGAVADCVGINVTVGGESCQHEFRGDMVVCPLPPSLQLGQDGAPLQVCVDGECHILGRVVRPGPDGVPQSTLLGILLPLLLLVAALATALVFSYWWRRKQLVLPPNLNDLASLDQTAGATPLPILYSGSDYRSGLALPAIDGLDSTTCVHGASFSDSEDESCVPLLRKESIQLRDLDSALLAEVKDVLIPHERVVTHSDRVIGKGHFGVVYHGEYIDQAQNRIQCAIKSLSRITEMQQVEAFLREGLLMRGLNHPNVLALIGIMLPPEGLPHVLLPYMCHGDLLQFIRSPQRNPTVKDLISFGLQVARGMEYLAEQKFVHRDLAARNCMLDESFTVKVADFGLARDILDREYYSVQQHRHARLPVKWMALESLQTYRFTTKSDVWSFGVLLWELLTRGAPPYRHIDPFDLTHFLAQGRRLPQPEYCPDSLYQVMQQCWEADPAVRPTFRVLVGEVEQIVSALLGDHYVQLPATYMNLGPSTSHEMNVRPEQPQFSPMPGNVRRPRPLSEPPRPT

C[C@@H](Oc1c(N)ncc2c(-c3cnn(C4CCNCC4)c3)c(C#CCN)oc12)c1c(Cl)ccc(F)c1Cl [Example 173, 2-(3-Aminoprop-1-ynyl)-7-[(R)-1-(2,6-dichloro-3-fluorophenyl)ethoxy]-3-(1-piperidin-4-yl-1H-pyrazol-4-yl)-furo[3,2-c]pyridin-6-ylamine]
IC50 (RON (human)): < 500 nM | IC50 (MET (human)): < 500 nM

COC(=O)c1coc2c(O[C@H](C)c3c(Cl)ccc(F)c3Cl)c(N)ncc12 [Example 175, 6-Amino-7-[(R)-1-(2,6-dichloro-3-fluorophenyl)ethoxy]furo[3,2-c]pyridine-3-carboxylic acid methyl ester]
IC50 (RON (human)): 5000 to 20000 nM | IC50 (MET (human)): 500 to 5000 nM

C[C@@H](Oc1c(N)ncc2c(C(=O)O)coc12)c1c(Cl)ccc(F)c1Cl [Example 176, 6-Amino-7-[(R)-1-(2,6-dichloro-3-fluorophenyl)ethoxy]furo[3,2-c]pyridine-3-carboxylic acid]
IC50 (RON (human)): 5000 to 20000 nM | IC50 (MET (human)): 500 to 5000 nM

C[C@@H](Oc1c(N)ncc2c(C(=O)N(C)C)coc12)c1c(Cl)ccc(F)c1Cl [Example 177, 6-Amino-7-[(R)-1-(2,6-dichloro-3-fluorophenyl)ethoxy]furo[3,2-c]pyridine-3-carboxylic acid dimethylamide]
IC50 (RON (human)): 5000 to 20000 nM | IC50 (MET (human)): 500 to 5000 nM

CCNC(=O)c1coc2c(O[C@H](C)c3c(Cl)ccc(F)c3Cl)c(N)ncc12 [Example 179, 6-Amino-7-[(R)-1-(2,6-dichloro-3-fluorophenyl)ethoxy]furo[3,2-c]pyridine-3-carboxylic acid ethylamide]
IC50 (RON (human)): 5000 to 20000 nM | IC50 (MET (human)): < 500 nM

C[C@@H](Oc1c(N)ncc2c(C(N)=O)coc12)c1c(Cl)ccc(F)c1Cl [Example 180, 6-Amino-7-[(R)-1-(2,6-dichloro-3-fluorophenyl)ethoxy]furo[3,2-c]pyridine-3-carboxamide]
IC50 (RON (human)): 5000 to 20000 nM | IC50 (MET (human)): 500 to 5000 nM

C[C@@H](Oc1c(N)ncc2c(C(=O)NC3CCN(C(=O)OC(C)(C)C)CC3)coc12)c1c(Cl)ccc(F)c1Cl [Example 181, 4-({6-Amino-7-[(R)-1-(2,6-dichloro-3-fluorophenyl)ethoxy]furo[3,2-c]pyridine-3-carbonyl}-amino)-piperidine-1-carboxylic acid tert-butyl ester]
IC50 (RON (human)): 5000 to 20000 nM | IC50 (MET (human)): 500 to 5000 nM

C[C@@H](Oc1c(N)ncc2c(C(=O)NC3CCNCC3)coc12)c1c(Cl)ccc(F)c1Cl [Example 182, 6-Amino-7-[(R)-1-(2,6-dichloro-3-fluorophenyl)ethoxy]furo[3,2-c]pyridine-3-carboxylic acid piperidin-4-ylamide]
IC50 (RON (human)): 500 to 5000 nM | IC50 (MET (human)): < 500 nM

CC(C)NC(=O)c1coc2c(O[C@H](C)c3c(Cl)ccc(F)c3Cl)c(N)ncc12 [Example 183, 6-Amino-7-[(R)-1-(2,6-dichloro-3-fluorophenyl)ethoxy]furo[3,2-c]pyridine-3-carboxylic acid isopropylamide]
IC50 (RON (human)): 500 to 5000 nM | IC50 (MET (human)): 500 to 5000 nM

C[C@@H](Oc1c(N)ncc2c(C(=O)NC(C)(C)C)coc12)c1c(Cl)ccc(F)c1Cl [Example 184, 6-Amino-7-[(R)-1-(2,6-dichloro-3-fluorophenyl)ethoxy]furo[3,2-c]pyridine-3-carboxylic acid tert-butylamide]
IC50 (RON (human)): 5000 to 20000 nM | IC50 (MET (human)): 500 to 5000 nM

C[C@@H](Oc1c(N)ncc2c(C(=O)NCC3CCN(C)CC3)coc12)c1c(Cl)ccc(F)c1Cl [Example 185, 6-Amino-7-[(R)-1-(2,6-dichloro-3-fluorophenyl)ethoxy]furo[3,2-c]pyridine-3-carboxylic acid (1-methylpiperidin-4-ylmethyl)amide]
IC50 (RON (human)): 500 to 5000 nM | IC50 (MET (human)): < 500 nM

C[C@@H](Oc1c(N)ncc2c(C(=O)NC3CCN(C)CC3)coc12)c1c(Cl)ccc(F)c1Cl [Example 186, 6-Amino-7-[(R)-1-(2,6-dichloro-3-fluorophenyl)ethoxy]furo[3,2-c]pyridine-3-carboxylic acid (1-methylpiperidin-4-yl)amide]
IC50 (RON (human)): 500 to 5000 nM | IC50 (MET (human)): < 500 nM

C[C@@H](Oc1c(N)ncc2c(C(=O)NCC3CCOCC3)coc12)c1c(Cl)ccc(F)c1Cl [Example 187, 6-Amino-7-[(R)-1-(2,6-dichloro-3-fluorophenyl)ethoxy]furo[3,2-c]pyridine-3-carboxylic acid (tetrahydropyran-4-ylmethyl)amide]
IC50 (RON (human)): 500 to 5000 nM | IC50 (MET (human)): 500 to 5000 nM

C[C@@H](Oc1c(N)ncc2c(C(=O)NCCCN(C)C)coc12)c1c(Cl)ccc(F)c1Cl [Example 189, 6-Amino-7-[(R)-1-(2,6-dichloro-3-fluorophenyl)ethoxy]furo[3,2-c]pyridine-3-carboxylic acid (3-dimethylaminopropyl)amide]
IC50 (RON (human)): 500 to 5000 nM | IC50 (MET (human)): < 500 nM

C[C@@H](Oc1c(N)ncc2c(C(=O)NCCN(C)C)coc12)c1c(Cl)ccc(F)c1Cl [Example 190, 6-Amino-7-[(R)-1-(2,6-dichloro-3-fluorophenyl)ethoxy]furo[3,2-c]pyridine-3-carboxylic acid (3-dimethylaminoethyl)amide]
IC50 (RON (human)): 500 to 5000 nM | IC50 (MET (human)): < 500 nM

COCCCNC(=O)c1coc2c(O[C@H](C)c3c(Cl)ccc(F)c3Cl)c(N)ncc12 [Example 191, 6-Amino-7-[(R)-1-(2,6-dichloro-3-fluorophenyl)ethoxy]furo[3,2-c]pyridine-3-carboxylic acid (3-methoxypropyl)amide]
IC50 (RON (human)): 500 to 5000 nM | IC50 (MET (human)): 500 to 5000 nM

COCCNC(=O)c1coc2c(O[C@H](C)c3c(Cl)ccc(F)c3Cl)c(N)ncc12 [Example 192, 6-Amino-7-[(R)-1-(2,6-dichloro-3-fluorophenyl)ethoxy]furo[3,2-c]pyridine-3-carboxylic acid (3-methoxyethyl)amide]
IC50 (RON (human)): 500 to 5000 nM | IC50 (MET (human)): < 500 nM

C[C@@H](Oc1c(N)ncc2c(C(=O)NCCN)coc12)c1c(Cl)ccc(F)c1Cl [Example 193, 6-Amino-7-[(R)-1-(2,6-dichloro-3-fluorophenyl)ethoxy]furo[3,2-c]pyridine-3-carboxylic acid (3-aminoethyl)amide]
IC50 (RON (human)): 500 to 5000 nM | IC50 (MET (human)): < 500 nM

C[C@@H](Oc1c(N)ncc2c(CO)coc12)c1c(Cl)ccc(F)c1Cl [Example 194, {6-Amino-7-[(R)-1-(2,6-dichloro-3-fluorophenyl)ethoxy]furo[3,2-c]pyridin-3-yl}-methanol]
IC50 (RON (human)): 500 to 5000 nM | IC50 (MET (human)): 500 to 5000 nM

C[C@@H](Oc1c(N)ncc2c(C3CCN(C(N)=O)CC3)coc12)c1c(Cl)ccc(F)c1Cl [Example 195, 4-{6-Amino-7-[(R)-1-(2,6-dichloro-3-fluorophenyl)ethoxy]furo[3,2-c]pyridin-3-yl}-piperidine-1-carboxamide]
IC50 (RON (human)): 500 to 5000 nM | IC50 (MET (human)): 500 to 5000 nM

C[C@@H](Oc1c(N)ncc2c(C3=CCN(/C(=N\C#N)N(C)C)CC3)coc12)c1c(Cl)ccc(F)c1Cl [Example 196, 4-{6-Amino-7-[(R)-1-(2,6-dichloro-3-fluorophenyl)ethoxy]-furo[3,2-c]pyridin-3-yl}-N,N-cyano-N,N-dimethyl-3,6-dihydro-2H-pyridine-1-carboxamidine]
IC50 (RON (human)): 500 to 5000 nM | IC50 (MET (human)): 500 to 5000 nM

C[C@@H](Oc1c(N)ncc2c(C3=CCN(/C(N)=N\C#N)CC3)coc12)c1c(Cl)ccc(F)c1Cl [Example 197, 4-{6-Amino-7-[(R)-1-(2,6-dichloro-3-fluorophenyl)ethoxy]-furo[3,2-c]pyridin-3-yl}-N-cyano-3,6-dihydro-2H-pyridine-1-carboxamidine]
IC50 (RON (human)): 500 to 5000 nM | IC50 (MET (human)): 500 to 5000 nM

CN/C(=N/C#N)N1CC=C(c2coc3c(O[C@H](C)c4c(Cl)ccc(F)c4Cl)c(N)ncc23)CC1 [Example 198, 4-{6-Amino-7-[(R)-1-(2,6-dichloro-3-fluorophenyl)ethoxy]-furo[3,2-c]pyridin-3-yl}-N-cyano-N′-methyl-3,6-dihydro-2H-pyridine-1-carboxamidine]
IC50 (RON (human)): 500 to 5000 nM | IC50 (MET (human)): 500 to 5000 nM

C[C@@H](Oc1c(N)ncc2c(C3=CCN(CC(=O)N(C)C)CC3)coc12)c1c(Cl)ccc(F)c1Cl [Example 200, 2-(4-{6-Amino-7-[(R)-1-(2,6-dichloro-3-fluorophenyl)ethoxy]-furo[3,2-c]pyridin-3-yl}-3,6-dihydro-2H-pyridin-1-yl)-N,N-dimethylacetamide]
IC50 (RON (human)): 500 to 5000 nM | IC50 (MET (human)): < 500 nM

CNC(=O)CN1CC=C(c2coc3c(O[C@H](C)c4c(Cl)ccc(F)c4Cl)c(N)ncc23)CC1 [Example 201, 2-(4-{6-Amino-7-[(R)-1-(2,6-dichloro-3-fluorophenyl)ethoxy]-furo[3,2-c]pyridin-3-yl}-3,6-dihydro-2H-pyridin-1-yl)-N-methylacetamide]
IC50 (RON (human)): 500 to 5000 nM | IC50 (MET (human)): < 500 nM

C[C@@H](Oc1c(N)ncc2c(C3=CCN(CC(N)=O)CC3)coc12)c1c(Cl)ccc(F)c1Cl [Example 202, 2-(4-{6-Amino-7-[(R)-1-(2,6-dichloro-3-fluorophenyl)ethoxy]-furo[3,2-c]pyridin-3-yl}-3,6-dihydro-2H-pyridin-1-yl)-acetamide]
IC50 (RON (human)): 500 to 5000 nM | IC50 (MET (human)): < 500 nM

C[C@@H](Oc1c(N)ncc2c(C3=CCN(CC(=O)N4CCC(O)C4)CC3)coc12)c1c(Cl)ccc(F)c1Cl (stereo partly drawn) [Example 203, 2-(4-{6-Amino-7-[(R)-1-(2,6-dichloro-3-fluorophenyl)ethoxy]-furo[3,2-e]pyridin-3-yl}-3,6-dihydro-2H-pyridin-1-yl)-1-(3-hydroxypyrrolidin-1-yl)ethanone]
IC50 (RON (human)): 500 to 5000 nM | IC50 (MET (human)): < 500 nM

C[C@@H](Oc1c(N)ncc2c(C3=CCN(c4c(N)c(=O)c4=O)CC3)coc12)c1c(Cl)ccc(F)c1Cl [Example 205, 3-Amino-4-(4-{6-amino-7-[(R)-1-(2,6-dichloro-3-fluorophenyl)ethoxy]-furo[3,2-c]pyridin-3-yl}-3,6-dihydro-2H-pyridin-1-yl)-cyclobut-3-ene-1,2-dione]
IC50 (RON (human)): 500 to 5000 nM | IC50 (MET (human)): < 500 nM

Source: patent US8022206B2 (OSI Pharmaceuticals, LLC, priority 2008, dated 2011)
